Assay results published in patent publication US20200069552A1, “COSMETIC AND/OR DERMATOLOGICAL COMPOSITION, AND USES THEREOF IN THE COSMETIC FIELD AND IN THE ADJUVANT TREATMENT OF DERMATOLOGICAL PATHOLOGIES” (ISTITUTO GANASSINI S.P.A. DI RICERCHE BIOCHIMICHE, priority 2017, published 2020).

Experiment: Viscosity at 25° C. with a Brookfield viscometer DV-I
Format: physicochemical

viscosity, in words (25° C.): extremely fluid | Viscosity at 25° C. (Rotor G = 2, 10 rpm): 3200 cP
Compound: CC(=O)Oc1c(C)c(C)c2c(c1C)CCC(C)(CCC[C@H](C)CCC[C@H](C)CCCC(C)C)O2 (some centres unmarked) [Comp A, Vitamin E acetate]
